Data: patent US20160194308A1, “NOVEL PIPERIDINYL BENZOIMIDAZOLE DERIVATIVES AS MPGES-1 INHIBITORS” (NovaSAID AB, priority 2013, published 2016)

Experiments:
[1] = biological target: T1, hERG potassium currents (CHO-K1 cells stably transfected with hERG) (Homo sapiens, UniProt Q12809); experiment: Automated whole-cell patch-clamp hERG assay; type: cell-based; settings: for IC50: Qpatch, tail current, CHO-K1 cells, 0.39 μM to 100 μM cumulatively; for IC50 ratio hERG/mPGEs-1: ratio of hERG IC50 to human mPGEs-1 IC50
T1 construct: expressed in transfected cells; host or cells: CHO-K1 cells (American Tissue Culture Collection), stably transfected
Procedure: The automated whole-cell patch-clamp hERG assay uses CHO-K1 cells obtained from American Tissue Culture Collection. hERG cDNA (GenBank sequence NM_000238) was subcloned into pSI vector (Promega). The CHO-K1 cells were co-transfected with this construct and pPUR (containing puromycin selective marker, BD Bioscience). After selection in puromycin for 10 days, single colonies were selected and verified with hERG potassium currents. The stably transfected cells were cultured in F-12 Kaighn's Nutrient Mixture medium (Invitrogen)+10% FBS at 37 C for 1-3 days. Subsequently the cells were harvested by trypsination and kept in serum free medium at room temperature before recording. The cells were washed and resuspended in extracellular solution before being applied to the patch clamp sites.
After whole cell configuration was achieved, the cell was held at −80 mV. A 50 millisecond pulse to −40 mV was delivered to measure the leaking current, which was subtracted from the tail current on-line. Then the cell was de-polarized to +20 mV for 2 seconds, followed by a second pulse to −40 mV to reveal hERG tail current. The paradigm was delivered once every 5 seconds to monitor the current amplitude. The extracellular solution (control) was applied first and the cell was stabilized in extracellular solution for 5 minutes. Then the test compound was applied from low concentrations (0.39 μM) to high concentrations (100 μM) cumulatively. The cell was incubated with each test concentration for 5 minutes. During the incubation, the cell was repeatedly stimulated using the voltage protocol described above, and the tail current amplitude was continuously monitored.
Data were acquired by Qpatch (Sophion Bioscience) and the degree of inhibition (%) was obtained by measuring the tail current amplitude before and after test compound incubation (the difference in current was normalized to control and multiplied by 100 to obtain the percent of inhibition). Concentration (log) response curves were fitted to a logistic equation (three parameters assuming complete block of the current at very high test compound concentrations) to generate estimates of the 50% inhibitory concentration (IC50). The concentration-response relationship of each compound was constructed from the percentage reductions of current amplitude by sequential concentrations (0.39 μM to 100 μM).
Further background information on the hERG assay is available in Expert Opin. Ther. Targets (2006) 10(2):319-327.

[2] = biological target: T2, recombinant membrane-bound human mPGEs-1 (Homo sapiens, UniProt O14684); experiment: Thiobarbituric acid assay (TBA-MDA assay), inhibition of mPGEs-1; type: biochemical; settings: arithmetic mean values, human mPGEs-1 TBA-MDA assay
T2 sequence (O14684 1-152): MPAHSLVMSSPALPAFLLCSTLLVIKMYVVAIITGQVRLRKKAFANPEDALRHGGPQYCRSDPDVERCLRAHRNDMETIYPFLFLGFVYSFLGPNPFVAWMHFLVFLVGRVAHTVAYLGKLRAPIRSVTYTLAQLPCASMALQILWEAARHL
Excerpt: Malondialdehyde is a product of lipid peroxidation and reacts with thiobarbituric acid forming a red product that absorbs light at 535 nm (W. G. Niehaus, Jr and B. Samuelsson, Eur. J. Biochem 6, 126 (1968)) and is also fluorescent. The extinction coefficient of the TBA-MDA conjugate is 1.56×10^5 M^−1 cm^−1 (E. D. Wills. Biochem. J. 113, 315 (1969). The method used for detection of inhibition of mPGEs-1 is based on the detection of the amount of remaining PGH2. This method was described more than 20 years ago by Basevich et al (Bioorg. Khim. 1983, 9(5), 658-665).
The assay used was a modified variant and used citric acid instead of the TCA-TBA-HCl reagent described in the original assay. In this assay, recombinant membrane-bound human mPGEs-1 was incubated with PGH2. The reaction was stopped by adding citric acid to a final pH 3 and a large excess of iron(II) chloride (20 mM) to convert any remaining PGH2 into MDA and 12-HHT. TBA reagent was finally added (0.67%) and the samples were heated at 80° C. for 30 min. The fluorescence of the conjugate was measured at 485/545 nm.
The product of mPGEs-1 (PGE2) was not measured directly in this assay, but rather the remaining substrate (PGH2) indirectly by adding FeCl2 that converts PGH2 into MDA and 12-HHT. As a positive control, a known mPGEs-1 inhibitor, MK-886, was used and the inhibition afforded by the new inhibitors was compared with that obtained from MK-886.

T1 sequence (Q12809 whole entry): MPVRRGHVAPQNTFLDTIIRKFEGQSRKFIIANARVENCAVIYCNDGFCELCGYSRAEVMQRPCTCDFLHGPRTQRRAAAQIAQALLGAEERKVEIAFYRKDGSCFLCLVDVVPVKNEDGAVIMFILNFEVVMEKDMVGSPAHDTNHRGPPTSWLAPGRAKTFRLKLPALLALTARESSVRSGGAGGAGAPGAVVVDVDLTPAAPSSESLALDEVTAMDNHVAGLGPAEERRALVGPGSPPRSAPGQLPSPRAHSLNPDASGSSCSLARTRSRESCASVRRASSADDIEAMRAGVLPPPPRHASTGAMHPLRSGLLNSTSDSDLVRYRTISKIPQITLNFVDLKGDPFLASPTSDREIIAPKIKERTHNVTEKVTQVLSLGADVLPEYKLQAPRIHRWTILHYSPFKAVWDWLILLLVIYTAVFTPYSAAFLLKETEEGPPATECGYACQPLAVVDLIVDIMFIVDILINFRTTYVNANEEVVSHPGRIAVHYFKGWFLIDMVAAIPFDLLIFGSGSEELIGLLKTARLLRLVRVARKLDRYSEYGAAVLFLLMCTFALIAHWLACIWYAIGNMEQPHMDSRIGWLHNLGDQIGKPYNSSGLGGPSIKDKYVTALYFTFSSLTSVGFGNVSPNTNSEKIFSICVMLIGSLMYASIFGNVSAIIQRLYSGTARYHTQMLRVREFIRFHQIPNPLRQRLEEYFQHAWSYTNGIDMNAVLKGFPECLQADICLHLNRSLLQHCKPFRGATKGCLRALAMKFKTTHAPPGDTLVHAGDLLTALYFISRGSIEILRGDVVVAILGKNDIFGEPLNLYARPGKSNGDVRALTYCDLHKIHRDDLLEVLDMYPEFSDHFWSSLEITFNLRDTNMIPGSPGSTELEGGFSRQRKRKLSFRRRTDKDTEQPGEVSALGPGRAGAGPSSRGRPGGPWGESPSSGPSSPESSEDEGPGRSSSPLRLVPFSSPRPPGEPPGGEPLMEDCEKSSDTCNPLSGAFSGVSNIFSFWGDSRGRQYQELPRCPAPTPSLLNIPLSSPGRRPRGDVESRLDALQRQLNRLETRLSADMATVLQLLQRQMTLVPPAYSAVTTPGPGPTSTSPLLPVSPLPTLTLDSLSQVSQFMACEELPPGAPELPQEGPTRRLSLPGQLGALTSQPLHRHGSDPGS

IC50 [2] [nM]	SMILES	IC50 [1] [nM]	IC50 ratio hERG/mPGEs-1 [1]
38	Cc1cc2c(cc1Cl)nc(N1CCC(C(=O)N[C@H]3COC[C@@H]3O)CC1)n2-c1cccc(C(F)(F)F)n1 [Example 1, 1-(5-chloro-6-methyl-1-(6-(trifluoromethyl)pyridin-2-yl)-1H-benzo[d]imidazol-2-yl)-N-((3S,4R)-4-hydroxytetrahydrofuran-3-yl)piperidine-4-carboxamide]	38000	1000
32	Cc1cc2nc(N3CCC(C(=O)N[C@H]4COC[C@@H]4O)CC3)n(-c3cccc(C(F)(F)F)n3)c2cc1Cl [Example 2, 1-(6-chloro-5-methyl-1-(6-(trifluoromethyl)pyridin-2-yl)-1H-benzo[d]imidazol-2-yl)-N-((3S,4R)-4-hydroxytetrahydrofuran-3-yl)piperidine-4-carboxamide]	> 100000	>3125

The remaining lines, values behind:

SMILES	IC50 [2] [nM]	IC50 [1] [nM]	IC50 ratio hERG/mPGEs-1 [1]
Cc1cc2nc(N3CCC(C(=O)N[C@@H]4CCOC4)CC3)n(-c3ccc(C(F)(F)F)cn3)c2cc1Cl [Comparative Example 4, (R)-1-(6-chloro-5-methyl-1-(5-(trifluoromethyl)pyridin-2-yl)-1H-benzo[d]imidazol-2-yl)-N-(tetrahydrofuran-3-yl)-piperidine-4-carboxamide]		14000	304
O=C(N[C@@H]1CCOC1)C1CCN(c2nc3cc(Cl)c(Cl)cc3n2-c2cccc(C(F)(F)F)n2)CC1 [Comparative Example 5, (R)-1-(5,6-dichloro-1-(6-(trifluoromethyl)pyridin-2-yl)-1H-benzo[d]imidazol-2-yl)-N-(tetrahydrofuran-3-yl)piperidine-4-carboxamide]	24	2100	88
Cc1cc2c(cc1Cl)nc(N1CCC(C(=O)N[C@@H]3CCOC3)CC1)n2-c1ccc(C(F)(F)F)cn1 [Comparative Example 3, (R)-1-(5-chloro-6-methyl-1-(5-(trifluoromethyl)pyridin-2-yl)-1H-benzo[d]imidazol-2-yl)-N-(tetrahydrofuran-3-yl)-piperidine-4-carboxamide]		19000	328
